Results: BindingDB's records for PubMed 22084396 (Genentech, Inc and Exelixis)

Experiments:
[1] = target: 3-phosphoinositide-dependent protein kinase 1, PDPK1 (Homo sapiens) (UniProt O15530); experiment: Inhibition of PDK1 (unknown origin)
[2] = target: Serine/threonine-protein kinase 4, STK4/MST1 (Homo sapiens) (UniProt Q13043); experiment: Inhibition of MST1 (unknown origin)
Sequence of Serine/threonine-protein kinase 4, STK4/MST1 (Homo sapiens) (Q13043 whole entry, looked up): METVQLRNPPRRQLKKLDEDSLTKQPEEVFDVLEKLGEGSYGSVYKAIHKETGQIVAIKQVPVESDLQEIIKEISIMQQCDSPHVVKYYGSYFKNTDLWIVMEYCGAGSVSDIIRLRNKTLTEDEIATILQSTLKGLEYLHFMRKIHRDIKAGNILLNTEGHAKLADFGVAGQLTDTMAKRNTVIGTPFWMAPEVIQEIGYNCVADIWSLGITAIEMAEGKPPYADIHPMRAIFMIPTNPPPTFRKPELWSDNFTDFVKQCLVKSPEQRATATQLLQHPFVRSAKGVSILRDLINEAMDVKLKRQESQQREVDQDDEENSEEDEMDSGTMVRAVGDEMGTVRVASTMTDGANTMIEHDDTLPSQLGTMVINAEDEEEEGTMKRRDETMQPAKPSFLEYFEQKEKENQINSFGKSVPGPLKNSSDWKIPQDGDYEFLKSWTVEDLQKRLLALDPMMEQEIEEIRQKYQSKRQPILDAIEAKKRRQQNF

Sequence of 3-phosphoinositide-dependent protein kinase 1, PDPK1 (Homo sapiens) (O15530 whole entry, looked up): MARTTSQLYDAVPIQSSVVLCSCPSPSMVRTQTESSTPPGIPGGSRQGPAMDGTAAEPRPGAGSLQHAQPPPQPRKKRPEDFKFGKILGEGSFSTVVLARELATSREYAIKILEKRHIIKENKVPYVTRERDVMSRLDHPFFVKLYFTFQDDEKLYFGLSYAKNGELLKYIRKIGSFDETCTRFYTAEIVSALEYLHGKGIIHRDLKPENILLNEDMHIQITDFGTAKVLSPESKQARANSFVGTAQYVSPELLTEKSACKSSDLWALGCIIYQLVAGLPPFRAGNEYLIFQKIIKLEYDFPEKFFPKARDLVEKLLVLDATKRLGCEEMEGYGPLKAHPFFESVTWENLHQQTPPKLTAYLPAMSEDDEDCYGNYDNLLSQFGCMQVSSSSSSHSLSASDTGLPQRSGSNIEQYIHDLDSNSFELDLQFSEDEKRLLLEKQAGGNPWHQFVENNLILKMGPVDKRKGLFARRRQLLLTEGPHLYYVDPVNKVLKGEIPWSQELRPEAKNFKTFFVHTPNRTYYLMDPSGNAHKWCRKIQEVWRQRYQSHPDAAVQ

IC50 [1]: > 10 µM
IC50 [2]: > 10 µM
Compound: O=C(c1ccc(F)c(F)c1Nc1ccc(I)cc1F)N1CC(O)([C@@H]2CCCCN2)C1
